Read-outs that look alike come from different tables or passages of the source. Square brackets hold non-standard residues; d marks the D form. Ends that are not written are not given here. Peptide text beside a SMILES is read from it. d2Nal = N[C@H](Cc1ccc2ccccc2c1)C(=O)O; Aib = CC(C)(N)C(=O)O
Columns and labels:
[1] = system: rat model of post-operative ileus; test: Gastric emptying (phenol red) after i.v. injection, ipamorelin compared to RC-1139, rat model of post-operative ileus (Example 5); assay type: in vivo; conditions: 10 mg/kg i.v.; for lethality: n = 2
Method: Ipamorelin was evaluated in a rat model of post-operative ileus in comparison to RC-1139, a ghrelin mimetic with known gastrokinetic efficacy. Treatment groups were as follows.
All animals were examined twice daily for mortality and signs of ill health or reaction to treatment (except on the day of arrival and necropsy when the animals were examined once). Individual body weights were measured at randomization and on the day prior to dosing (for dose calculation purposes only).
All treatment procedures were replicated over two consecutive days with approximately equal numbers of animals from each group treated on each day. Food was withdrawn from animals overnight prior to surgery. On the day of surgery animals were anesthetized with isoflurane gas and a bland ophthalmic lubricant was applied to each eye. The animals were prepared for surgery by shaving of the entire abdominal region. The shaved area was cleaned and disinfected appropriately prior to incision. Using a scalpel blade, the abdomen was opened and the cecum localized. The cecum was exteriorized and manipulated for approximately one minute (i.e. gently patted between hands in saline-soaked gauze). Thereafter, the cecum was repositioned and the surgical site closed using absorbable suture material (interrupted sutures) and staples. Animals were then returned to their home cage to permit recovery from the anesthesia.
Animals were dosed immediately following the oral gavage dose of phenol red. The test/control articles and reference article were administered by intravenous injection (given as a slow bolus injection over a period of ca. 100 seconds) into the tail vein using a syringe and appropriate gauge needle. The dose volume was 5 mL/kg and the actual dose administered was based on the most recent body weight of each animal.
Prior to dosing of the phenol red, the animals were water deprived. At approximately 30 minutes post-surgery, animals received 0.4 mL of phenol red by oral gavage, then dosed with the test article, and then, approximately 30 minutes later, were euthanized. […]

Half-life in humans = assay type: in vivo
[2] = Prior Phase 1 studies, safety and tolerability; assay type: in vivo, humans; conditions: 0.06 mg/kg IV infused over 15 minutes
Method: Ipamorelin was formulated as a 0.5 mg/mL sterile solution with 2 equivalents of acetic acid in normal saline. The sterile solution was further diluted with normal saline to an appropriate volume for administration prior to use.

[3] = Johansen et al. 1998; cited from earlier work
[4] = system: gastrointestinal motility in rats; test: Gastrointestinal motility in rats by charcoal transit, 0.25 mg/kg i.v. (Example 8); assay type: in vivo, rat; conditions: for reduction of the amount of charcoal remaining in the stomach relative to the control group: 0.25 mg/kg i.v.
Method: The objective of this study was to evaluate the pharmacological effects of a series of ghrelin mimetics on gastrointestinal motility in rats, as measured by charcoal transit, relative to a commonly used prokinetic agent, metoclopramide, and control, following a single intravenous infusion of the experimental agent. Each dosing formulation was prepared on the day of dosing. […] The reference article formulations were also prepared on the day of dosing by mixing the appropriate amount of reference article with the appropriate volume of vehicle to achieve the desired final concentration. The saline and metoclopramide (1 mg/mL) were used as supplied. Dosing was performed on consecutive days with approximately equal numbers of animals being dosed on each day. The animals were deprived of food overnight prior to treatment. Each formulation was administered by intravenous injection into the tail vein using a syringe and appropriate gauge needle. The dose volume was 5 mL/kg or 10 mL/kg (in the case of metoclopramide only). […] Following the observation period the rats were euthanized, the abdominal cavity opened, and the stomach and intestines removed. The presence or absence of charcoal was documented. The stomachs were weighed (with or without contents) to give an indication of gastric emptying. The intestines were opened and extended to their full length. The charcoal was located and the distances from the pyloric sphincter to the most proximal and distal traces of charcoal were measured as was the total distance from the pyloric sphincter to the cecum. Also, the distance traveled by the charcoal as a percentage of the total length of the small intestine was measured.

[5] = system: morphine-induced gastric ileus in rats; test: Morphine-induced gastric ileus in rats, phenol red gastric emptying (Example 4); assay type: in vivo, rat
Method: Treatment groups were set up as follows.
The dose volume was 0.1 mL/kg for Groups 2 and 3 and 0.4 mL/kg for Groups 4 and 5. The actual dose administered was based on the most recent practical body weight of each animal.
Approximately 30 minutes following administration of control or test article, the rats were euthanized. The stomach was then exposed by laparotomy, quickly ligated at the pylorus and the cardia and removed. The stomach was cut open and its contents extracted with 100 mL of 0.1N NaOH. The phenol red content of this extract was assayed […] at 558 nm in a spectrophotometer. Following collection, samples were stored on wet ice pending transfer for analysis.

[6] = system: gastrointestinal motility in rats; test: Gastrointestinal motility in rats by charcoal transit, equimolar i.v. dose (Example 9); assay type: in vivo, rat; conditions: single intravenous dose of 75 μmoles/kg
Source text: The objective of this study was to evaluate the pharmacological effects of a series of ghrelin mimetics on gastrointestinal motility in rats, as measured by charcoal transit, relative to control, following a single intravenous infusion of the experimental agent.
Dosing commenced on consecutive days with approximately equal numbers of animals from each group being dosed on each day. The animals were food deprived overnight prior to treatment. Prior to dosing, the animals were water deprived. The test/reference/positive control articles were administered by intravenous injection into the tail vein using a syringe and appropriate gauge needle. […]
At the end of the observation period, the rats were euthanized and the abdominal cavity was opened and the stomach and intestines were removed. […] The stomachs were weighed (with and without contents) and this was recorded to give an indication of gastric emptying. […] The charcoal was located and the distances from the pyloric sphincter to the most proximal and distal traces of charcoal were measured and recorded, as well as the total distance from the pyloric sphincter to the cecum (all distances were measured in mm). In addition to the stomachs weights (with and without contents) the distance traveled by the charcoal as a percentage of the total length of the small intestine was recorded to give an indication of the gastric emptying. […]

rat model of POI = test: Rat model of POI (running of the bowel), single dose (Example 10, series 1); assay type: in vivo
Source text: Animals: Adult male Sprague-Dawley rats with indwelling catheters implanted in the right jugular vein were obtained from Charles River (Wilmington, Mass.). The initial body weight of the animals was 250-270 g. The catheters were maintained patent during the acclimation and were used for the dosing of ipamorelin or vehicle. An additional group of control rats, not subjected to surgery and drug or vehicle treatment, were purchased with an indwelling catheter implanted into the proximal colon (1-2 cm from the cecum) used for infusion of a dye marker measuring colonic transit. All rats were single-housed under controlled conditions (25° C., 12 h light/dark cycle) with free access to food and water. An acclimation period of at least one week was allowed prior to the experiments. • Induction of post-operative ileus (POI): POI was induced by a surgical procedure described as “running of the bowel” (Kalff et al., 1998). Specifically, rats were anesthetized with isoflurane (2-3%) inhalation, the abdomen was shaved, disinfected and a midline incision was made to expose the viscera. The small intestine and the cecum were exteriorized and inspected for 5 min using cotton applicators soaked in sterile saline. After completing the inspection, the intestine was covered with gauze soaked in saline and the abdomen remained open for additional 10 min. To study colonic transit, 200 μl of a non-absorbable dye marker (trypan blue in saline) was injected into the proximal colon (1 cm distal to the cecum). The incision was then closed with silk sutures. The whole procedure lasted 25-30 min. Surgeries were always performed at 6:00-8:00 AM and the animals received ipamorelin or vehicle treatment during the light phase of the light/dark cycle. • Measurement of colonic transit time: Prior to the experiments, the rats were fasted for 20-22 h with free access to water. […] Colonic transit time was evaluated as the period between the end of surgery and the appearance of dye in the fecal pellet. […] The cumulative fecal output was evaluated by adding the number of pellets throughout a 48-h post-surgical period. Food intake was recorded at 3-h interval or 12-h intervals according to the experimental design and was normalized as g/100 g body weight. The cumulative food intake was calculated for 48 h post-surgery in both series of experiments. Body weight was measured daily at 8:00-9:00 AM before fasting the animals, on the day of experiment before the surgery and at 24 h and 48 h post-surgery. Changes in body weight are expressed as body weight gain compared to the weight of the fasted animal taken before the surgery. • Test and control articles: The test compound ipamorelin (free base) was converted to the diacetate salt by mixing with 2 molar equivalents of glacial acetic acid. […]

[7] = cited from earlier work
[8] = cited from earlier work; remark: listed apart in the source
[9] = single dose i.v., first 48 h post-surgery
[10] = 50 μg/kg i.v. after 1 mg/kg morphine

Molecule: CN(C(=O)/C=C/CC(C)(C)N)[C@H](Cc1ccc(-c2ccccc2)cc1)C(=O)N(C)[C@H](Cc1ccccc1)C(=O)N1CCC(O)CC1 [RC-1139]
- stomach content of the phenol red marker lower than that of the control group [1]: approximately 16%

Molecule: CC(C)(N)C(=O)N[C@@H](Cc1c[nH]cn1)C(=O)N[C@H](Cc1ccc2ccccc2c1)C(=O)N[C@H](Cc1ccccc1)C(=O)N[C@@H](CCCCN)C(N)=O [ipamorelin, α-Methylalanine-L-histidine-D-β-(2-naphthyl)-alanine-D-phenylalanine-L-lysinamide] (H-[Aib]H[d2Nal][dF]K-NH2)
- half-life in humans (Half-life in humans): approximately six
- half-life (Half-life in humans; human, serum): 180 to 390 min
- lethality [1]: Two animals died immediately
- lethality ([1]; listed as Ipamorelin): *Lethality was observed immediately following administration of a 10 mg/kg dose (n = 2) and consequently the dose level was reduced to 0.25 mg/kg for all remaining animals in Group 4
- safety and tolerability in prior Phase 1 studies [2]: safe and well-tolerated
- half-life in the rat [3]: 30 to 60 min

Molecule: CCN(CC)CCNC(=O)c1cc(Cl)c(N)cc1OC [metoclopramide]
- increase of distal distance traveled by the charcoal meal versus control ([4]; 10 mg/kg i.v.): 29%
- stomach charcoal content versus control group ([4]; 10 mg/kg i.v.): not significantly different
- distal distance traveled by the charcoal meal ([4]; 10 mg/kg i.v., control group 67.3%): 86.9%

Molecule: CN1CC[C@]23c4c5ccc(O)c4O[C@H]2[C@@H](O)C=C[C@H]3[C@H]1C5 [morphine]
- reduction of stomach emptying compared to the control animals ([5]; 1 or 4 mg/kg subcutaneous): approximately 42%

Molecule: GHRP-6
- reduction of the amount of charcoal remaining in the stomach relative to the control group [4]: 64%
- intestinal transit, proximal distance traveled by the charcoal from the pyloric sphincter [6]: resulted in gastric emptying by one of the two measures
- body weight gain (rat model of POI; [9]): neither ipamorelin nor GHRP-6 had a significant effect
- fecal pellet output (rat model of POI; [9]): neither ipamorelin nor GHRP-6 had a significant effect
- food intake (rat model of POI; [9]): neither ipamorelin nor GHRP-6 had a significant effect
- colonic transit time (rat model of POI; single post-surgical dose of 20 μg i.v.): significantly decreased
- serum half life ([7]; Bowers et al. 1992): 20 min

Molecule: ghrelin: 28-amino acid peptide that is produced in the stomach; potent prokinetic peptide known to reverse gastric ileus (GSSFLSPEHQRVQQRKESKKPPAKLQPR; ends and bridges not checked; UniProt Q9UBU3 24-51, looked up)
- acceleration of stomach emptying compared to animals treated with 1 mg/kg morphine and saline [5, 10]: approximately 37%
- reversal of the ileus induced [5, 10]: approximately 11%
- gastric emptying in rats administered 4 mg/kg of morphine ([5]; 50 μg/kg i.v. after 4 mg/kg morphine): did not accelerate gastric emptying
- group mean absorbance of phenol red ([5]; 50 μg/kg i.v. after 4 mg/kg morphine, saline group 2.99): 3.01
- reduction of the amount of charcoal remaining in the stomach relative to the control group [4]: 57%
- intestinal transit, proximal distance traveled by the charcoal from the pyloric sphincter [6]: resulted in gastric emptying by one of the two measures
- half-life in humans [8]: approximately 10 minutes
- serum half-life ([7]; biologically active (acylated) form, Akamizu et al. 2004): 9 to 13 min

From US8039456B2, “Method of stimulating the motility of the gastrointestinal system using ipamorelin” (Helsinn Therapeutics (U.S.), Inc., priority 2004, dated 2011)
